Assay results reported in patent US9987294B2, “Mitochondria-targeted anti-tumor agents” (University of Massachusetts, priority 2007, dated 2018).
“Also recorded” adds a separate entry of the source. Where a SMILES comes first, the peptide text is derived from it. [ ]: non-standard residue; d: D form.

Tests used:
[1] = test system: mitochondria purified from B-lymphoblastoid Raji cells; assay: Mitochondrial membrane potential of TMRM-loaded isolated mitochondria; assay type: biochemical, human
Experimental: (§1) Raji cells were treated with Shepherdin or control scrambled peptidomimetic (100 μM) or 17-AAG (5 μM), loaded with the mitochondrial membrane potential-sensitive fluorescent dye JC-1, and analyzed for changes in green/red fluorescence ratio by flow cytometry. For experiments in a cell-free system, purified mitochondria isolated from primary normal cells, various tumor cells types, or normal mouse organs were suspended in SB buffer. […] For these experiments, TMRM-loaded mitochondria in SB buffer were allowed to reach stable fluorescence, which was set as fully polarized state (maximum membrane potential). The fluorescence intensity after treatment with 2 mM CaCl2 was set as minimum membrane potential (fully depolarized state). Changes in fluorescence intensity after each treatment were plotted as a ratio between maximum and minimum membrane potential.

[2] = test system: purified HeLa cell mitochondria; assay: as above; assay type: biochemical, human; conditions: TMRM-loaded HeLa cell (tumor) mitochondria
Experimental: as §1

[3] = test system: mitochondria isolated from WS-1 normal human fibroblasts; assay: as above; assay type: biochemical
Experimental: as §1
Alternatively, H460 cells were labeled with the fluorescent dye JC-1 (Molecular Probes), and analyzed for changes in red/green (F1-2/F1-1) fluorescence ratio after treatment with the various agents, by multiparametric flow cytometry. Cytochrome c content in pellets or supernatants of drug-treated isolated mitochondria was determined by Western blotting.

[4] = test system: Ras-transformed NIH3T3 mitochondria; assay: as above; assay type: biochemical
Experimental: as §1

[5] = test system: normal mouse brain mitochondria; assay: as above; assay type: biochemical
Experimental: as §1

[6] = test system: normal mouse liver mitochondria; assay: as above; assay type: biochemical
Experimental: as §1

[7] = test system: mitochondria isolated from normal NIH3T3 cells; assay: as above; assay type: biochemical
Experimental: as §1, with “potential. In some experiments, increasing concentrations (10-100 μg) of TMRM-loaded mitochondria isolated from HeLa or MCF-7 cells were diluted in 3 ml of SB buffer, normalized to a total protein concentration of 500 μg with BSA, and analyzed for changes in membrane potential in response to control or the various Hsp90 antagonists.” for “potential.”

[8] = test system: mitochondria isolated from Raji lymphoblastoid cells; assay: Cytochrome c release from isolated mitochondria (Western blotting); assay type: biochemical, human
Experimental: (§2) Tumor cell types were treated with controls or the various Hsp90 antagonists, and cytosolic extracts were harvested at increasing time intervals between 5-30 minutes and analyzed by Western blotting. For experiments in a cell-free system, purified mitochondria (20 μg) were suspended in 500 μl of SB buffer (0.2 M sucrose, 10 mM Tris-MOPS, pH 7.4, 5 mM succinate, 1 mM sodium phosphate, 10 μM EGTA-Tris, and 2 μM rotenone). Samples were treated with controls or the various Hsp90 antagonists for 20 minutes at 22° C. At the end of each incubation reaction, mitochondria and supernatants were separated by centrifugation at 6,000×g for 10 minutes, and analyzed by Western blotting.

[9] = test system: mitochondria isolated from a p53−/− mouse lymphoma specimen; assay: as above; assay type: biochemical
Experimental: as §2

[10] = test system: primary human sarcoma sample mitochondria; assay: as above; assay type: biochemical
Experimental: as §2

[11] = test system: normal mouse liver mitochondria; assay: Cytochrome c and Smac content of isolated mitochondria (Western blotting); assay type: biochemical
Experimental: as §2

Raji cells = assay: Mitochondrial membrane potential in JC-1-loaded cells (flow cytometry); assay type: cell-based, human; conditions: within five minutes of addition
Experimental: as §1

HeLa cells [12] = assay: Cytochrome c release into the cytosol of treated tumor cells (Western blotting); assay type: cell-based, human
HeLa cells [13] = assay: Time-lapse videomicroscopy of cell morphology; assay type: cell-based, human; conditions: within minutes
Experimental: For time lapse videomicroscopy, HeLa cells were maintained in 35 mm glass-bottom tissue-culture dishes (Mat-tek). Prior to imaging, cells were incubated with 400 nM CM-H2XRos (M7513, Molecular Probes) under growth conditions for 15 minutes. After washes, fresh culture medium was added, and cells were imaged in an environmental chamber (PDMI-2; Harvard Apparatus) in complete medium with CO2 exchange (0.5 liters/minute) at 37° C. Cells were imaged every 1 minute using a 100× phase contrast lens with a green interference filter on an inverted microscope (Olympus IX-70). Images were captured on a CoolSnap HQ CCD camera (Roper Scientific) and concatenated using Metamorph software (Universal Imaging Corp.). Cells were imaged in the absence of any reagent for the first 10 minutes of the time lapse, at which point Shepherdin or cell permeable scrambled peptidomimetic was added dropwise in between acquisitions. Phase-contrast images of mitochondria were verified by the presence of CM-H2XRos labeling.

tumor cells = assay: Cell viability by MTT, tumor cell types; assay type: cell-based; conditions: 1 hour exposure; MTT
[14] = test system: normal human fibroblast cell types (WS-1, HGF, HFF); assay: Cell viability by MTT, normal human fibroblast cell types
Experimental: Changes in protein expression in the various experiments of siRNA targeting were assessed by Western blotting. For analysis of TRAP-1-directed cytoprotection, primary nontransformed human fibroblasts HFF and WS-1 were transfected with control pcDNA3 or TRAP-1 cDNA by lipofectamine for 24 hours, exposed to increasing concentrations (0-1 μM) of the cell death stimulus staurosporine (STS), and analyzed for cell viability after additional 24 hours incubation by MTT. For analysis of apoptosis, p53+/+ or p53−/−HCT116 cells were treated with control or ANT-GA (100 μM), and analyzed for DEVDase activity (CaspaTag) and propidium iodide staining by simultaneous multiparametric flow cytometry, as described (Dohi et al., J. Clin. Invest. 114(8):1117-27, (2004); Plescia et al., Cancer Cell, 7:457-468, (2005)).

HeLa cells [15] = assay: Cell viability by MTT, HeLa cells; conditions: 50 μM; cultures not treated with CsA

Question: How did the “membrane potential of mitochondria” value [1] turn out when CSCC[C@@H](NC(=O)[C@@H](CCCCN)NC(=O)[C@@H](Cc1c[nH]c2ccccc12)NC(=O)[C@@H](CCCCN)NC(=O)[C@H](N)CCCCN)C(=O)N[C@H](CCCNC(=N)N)C(=O)N[C@H](CCCNC(=N)N)C(=O)N[C@H](CC(N)=O)C(=O)N[C@H](CCC(N)=O)C(=O)N[C@H](Cc1ccccc1)C(=O)N[C@H](Cc1c[nH]c2ccccc12)C(=O)N[C@@H](C(=O)N[C@H](CCCCN)C(=O)N[C@@H](C(=O)N[C@H](CCC(N)=O)C(=O)N[C@H](CCCNC(=N)N)C(=O)N[C@H](CC(C)C)C(=O)N[C@H](Cc1ccccc1)C(=O)N[C@H](C)C(=O)N[C@H](CS)C(=O)NCC(=O)N[C@H](CO)C(=O)N[C@H](CO)C(=O)N[C@H](Cc1c[nH]cn1)C(=O)N[C@H](CCCCN)C(N)=O)C(C)C)C(C)C [Sheph-ANT] (H-[dK][dK][dW][dK][dM][dR][dR][dN][dQ][dF][dW][dV][dK][dV][dQ][dR][dL][dF][dA][dC]G[dS][dS][dH][dK]-NH2; N-terminus and C-terminus assumed) was run?
Answer: readily depolarized mitochondria

Question: And the mitochondrial membrane potential [2]?
Answer: caused sudden loss of mitochondrial membrane potential; also recorded: induces a change in mitochondrial membrane potential

Question: What about the “membrane potential of mitochondria” value ([3]; WS-1 normal human fibroblasts) of the same compound?
Answer: did not cause loss of membrane potential

Question: What about the “membrane potential of mitochondria” value ([3]; glucose-deprived WS-1, compared with Scram-ANT) of the same compound?
Answer: did not significantly affect membrane potential

Question: And the “mitochondrial membrane potential of normal cells” value ([3]; summary for normal cells (FIGS. 4A, C, E, G))?
Answer: did not affect mitochondrial membrane potential of normal cells over background levels

Question: What about the “membrane potential of mitochondria” value [4] of the same compound?
Answer: readily depolarized Ras-transformed NIH3T3 mitochondria

Question: And the “membrane potential of mitochondria” value [5]?
Answer: did not affect membrane potential

Question: And the “membrane potential of mitochondria” value [6]?
Answer: did not affect membrane potential; also recorded: had no effect on normal liver mitochondria, with or without CsA

Question: And the “membrane potential of mitochondria” value [7]?
Answer: had no effect on mitochondria isolated from normal NIH3T3 cells

Question: And the “release of cytochrome c from mitochondria” value [8]?
Answer: concentration-dependent release of cytochrome c; also recorded: reduces mitochondrial Cyt c in a dose-dependent manner

Question: And the “cytochrome c release from mitochondria” value [9]?
Answer: induced cytochrome c release

Question: And the “release of cytochrome c from mitochondria” value [10]?
Answer: concentration-dependent release of cytochrome c; also recorded: increases Cyt c release into the supernatant in a dose-dependent manner

Question: And the “cytochrome c or Smac levels of mitochondria” value [11]?
Answer: had no effect on cytochrome c or Smac levels

Question: What about the “mitochondrial membrane potential in tumor cells” value (Raji cells) of the same compound?
Answer: induced loss of mitochondrial membrane potential in tumor cells

Question: What about the “cytochrome c release into the cytosol” value (HeLa cells [12]) of the same compound?
Answer: discharge of mitochondrial cytochrome c in the cytosol

Question: And the “morphological features of apoptosis” value (HeLa cells [13])?
Answer: exhibited within minutes morphological features of apoptosis

Question: And the “tumor cell viability / killing” value (tumor cells)?
Answer: sufficient to kill disparate tumor cell types in a concentration-dependent manner; also recorded: triggered selective tumor cell death

Question: And the “viability of normal human fibroblast cell types” value [14]?
Answer: did not affect the viability of various normal human fibroblast cell types

Question: And the cell killing (HeLa cells [15])?
Answer: complete cell killing
